The source of these data is US20180179292A1, “RKIP AGONISM IN THE TREATMENT AND PREVENTION OF HEART FAILURE” (Leibniz-Institut für analytische Wissenschaften- ISAS-e.V., priority 2015, published 2018).

Marks after values point to notes of the source that are not given here.

Experiment [1] relates to Wt and RKIP-tg mice. Put plainly: Left ventricular catheterization with esmolol infusion. The format is in vivo, mouse. On the procedure:
For left ventricular pressure measurements we inserted a 1.4F pressure catheter (Millar Instruments) into the right carotid artery and advanced it to the left ventricular chamber. During measurement we injected esmolol (12 μg/min for 1 min) or dobutamine (in increasing doses: 75, 150, 375, 750 and 1500 ng/min) into the V. jugularis. We analyzed data using the Chart software (Chart5.4, AD Instruments) as previously described^60. We excluded mice with heart rates below 450 bpm (or below 430 bpm in the case of β1KO or RKIP-tg/β1KO mice).

Experiment [2] concerns RyR2, PLN and TnI phosphorylation. Put plainly: Isoproterenol infusion with or without ICI 118,551, immunoblot of heart lysates. In kind it is in vivo, mouse. The source says: Immunoblot quantification of (a) pPLN(S16), (b) pTnI (SS23/24), (c) pRyR2(S2808) and pRyR2(S2814) in heart lysates of untreated (Con) and isoproterenol-treated mice and mice treated with Iso in combination with ICI 118,551. pPLN(S16), n=13; pTnI(SS23/24), n=11; pRyR2(S2808), n=12; n are mice per group; mean±SEM; *, p<0.05 vs. Con. Immunoblot analysis of Con vs. Iso for RyR2 phosphorylation (pRyR2[S2808] and pRyR2[S2814]) show significant differences when a t-test analysis is applied (#, p<0.05 vs. Con).
We intravenously infused isoproterenol (1.1 μg/min for 2 min) with or without ICI 118,551 (0.14 μg/min for 2 min) via the V. jugularis as indicated. We pretreated mice with pertussis toxin (PTX; 300 μg/kg body weight; i.p) for 24 h as indicated. Mice were sacrificed and hearts were used for Western blot analyses. Efficiency of Gαi inhibition by PTX was evaluated by in vitro PTX-catalyzed ADP ribosylation in the presence of [^32P]-nicotinamide adenine dinucleotide ([^32P]NAD). […] After filtration through a 200 μm-mesh, we determined the protein content of the tissue homogenate and then incubated 30 μg of protein with 0.1 μM [^32P]NAD (800 Ci/mmol) in a buffer containing 20 mM Tris-HCl (pH7.6), 15 mM thymidine, 1 mM EDTA, 1 mM ATP, 0.1 mM GDP and 1 μg of PTX (preactivated) for 1 h at 30° C. […] Proteins were separated on SDS-PAGE and incorporated [^32P] was assessed by Phospholmager analysis. […]
(In general: A western blot detects proteins with antibodies after separation by electrophoresis.)

For experiment [3], the system named is Wt mice. Put plainly: Chronic isoproterenol infusion via osmotic minipumps in Wt mice (echocardiography, interstitial fibrosis). In kind it is in vivo, mouse. Conditions: mean ± SEM. Here is the method: (§1) Echocardiographic measurements and histological analysis of interstitial fibrosis of wild-type (Wt) and RKIP transgenic (RKIP-tg) mice before and after 4 weeks of isoproterenol application via osmotic minipumps (Iso; 30 mg/kg/d). Shown are measurements of wall thicknesses (interventricular septal [IVS] and left ventricular posterior wall [LVPW]), left ventricular internal dimension (LVID), fractional shortening (FS), ejection fraction (EF), heart rates and the quantification of interstitial fibrosis (arbitrary units) of Sirius Red-stained left ventricular myocyrdial sections. Values represent mean (±SEM); *, p<0.05 vs. Con; #, p<0.05 vs. Wt Iso; $, p<0.05 vs. Wt Con. n represent the number of mice (for the analysis of interstitial fibrosis one transverse section was analyzed per mouse).
(§2) Osmotic minipumps (Alzet, model 1004) were implanted subcutaneously in male 8-week old Wt and RKIP-tg mice (C57/BL/6J background). The implanted pumps continuously released isoproterenol for 4 weeks (30 mg/kg body weight/day).
(§3) We performed transthoracic echocardiograms in a blinded manner using the Vevo700 or Vevo2100 high-resolution imaging systems (VisualSonics) and a 30-MHz probe. We obtained values for end-diastolic septal and posterior wall thicknesses as well as end-diastolic and -systolic internal diameters from 2D M-mode images in the short axis view at the proximal level of the papillary muscles. We obtained peak blood flow velocities at the site of TAC [Vmax (millimetres per second)] from pulsed-waved Doppler measurements. We calculated fractional shortening (FS), ejection fraction (EF), and aortic pressure gradients (mmHg) by VisualSonics Cardiac Measurements software. The shown data represent averages of at least six cardiac cycles per animal. We excluded mice with heart rates below 450 bpm (or below 430 bpm in the case of β1KO or RKIP-tg/(β1KO mice).
(§4) After fixation of hearts in 4% (m/v) paraformaldehyde, hearts were embedded in paraffin. Sections (2 μm) were stained with haematoxylin and eosin or with Sirius Red as described previously^60. For quantification of fibrosis, we stained left ventricular sections with Sirius Red and subsequently analyzed […] by semi-automated image analyses in blinded manner. For immunostaining, we used Vectastain Elite ABC Reagent with biotinylated goat-anti-rabbit IgG in combination with diaminobenzidine (DAB) and glucose oxidase (Sigma) similarly as described previously^60,61. We counterstained nuclei with haematoxylin.

Experiment [4] concerns RKIP-tg mice. Put plainly: Chronic isoproterenol infusion via osmotic minipumps in RKIP-tg mice (echocardiography, interstitial fibrosis). The format is in vivo, mouse. Conditions: mean ± SEM. Here is the method:
as §1, §2, §3, §4

Experiment [5] relates to RKIP. Put plainly: RKIP expression in neonatal rat cardiomyocytes (Western blot). Conditions: NRCM, 75 μg/ml, 30 h. The format is cell-based. Here is the method: 500 000 NRCM/Well were plated in 12 Well plates, cultured for 24 h and subsequently treated with the indicated compounds for 30 h inkubiert. Cells were lysed, Western blots performed and signals were quantified using ImageJ (n=11). Shown are SEM; *. p=0.0003
We homogenized left ventricular tissue or cells in lysis buffer (1% [v/v] Triton-X-100, 5 mM EDTA, 300 mM NaCl, 50 mM Tris [pH7.4], supplemented with protease and phosphatase inhibitors). We removed cell debris by centrifugation (10 min, 1000×g, 4° C.) and used lysates for Western blot analysis: We determined protein concentrations and used equal amounts of protein for immunoblot analysis. We separated proteins by SDS-PAGE and transferred them to PVDF membranes. We blocked membranes for 1 h with 5% (w/v) fat-free milk dissolved in 10 mM Tris (pH7.6), 100 mM NaCl and 0.1% (v/v) Tween-20, incubated membranes with primary antibodies overnight at 4° C., thereafter with secondary antibodies conjugated with horseradish peroxidase (HRP) and used the Pierce™ ECL Plus Western blotting kit for detection. To average our immunoblot experiments and to present semi-quantitative results, we quantified immunoblot signals using ImageJ.
For the detection of RKIP phosphorylation (“activation as GRK2 inhibitor”), we used antibodies directed againt Ser153-phosphorylation of RKIP (pRKIP[hSer153], sc-32623, Santa Cruz Biotechnology; pRKIP [rSer153], sc-32622, Santa Cruz Biotechnology). For RKIP expression levels we used antibodies directed against RKIP (RKIP, sc5422, Santa Cruz Biotechnology; RKIP antibodies raised against recombinant GST-RKIP as antigen (Lorenz et al., 2003).
We tested an anti-CD20 antibody (such as rituximab) and an anti-VEGF antibody (such as bevacizumab) and several other therapeutic antibodies (obtained from the hospital pharmacy, Uniklinik Wiirzburg) on RKIP expression and RKIP activation (Ser153 phosphorylation) in neonatal rat cardiomyocytes as well as cardiomyocyte contractility.

In experiment [6] the test system is RKIP. Put plainly: RKIP activation (Ser153 phosphorylation, pRKIP) in neonatal rat cardiomyocytes (Western blot). In kind it is cell-based. The settings on record: NRCM, 25 and 75 μg/ml, 30 h. On the procedure:
NRCM were treated with rituximab (25 μg u. 75 μg/ml) or bevacizumab (25 μg u. 75 μg/ml) for 30 h and Western blot analysis performed. Gβ was used as loading control.
NRCM were treated with rituximab (25 μg u. 75 μg/ml) for 30 h and Western blot analysis and quantification using ImageJ was performed. Gβ was used as loading control. SEM, n=3, *, p=0.0004
NRCM were treated with rituximab (25 μg u. 75 μg/ml) for 30 h and Western blot analysis and quantification using ImageJ was performed. Gβ was used as loading control. SEM, n=4, *, p=0.0004
We homogenized left ventricular tissue or cells in lysis buffer (1% [v/v] Triton-X-100, 5 mM EDTA, 300 mM NaCl, 50 mM Tris [pH7.4], supplemented with protease and phosphatase inhibitors). We removed cell debris by centrifugation (10 min, 1000×g, 4° C.) and used lysates for Western blot analysis: We determined protein concentrations and used equal amounts of protein for immunoblot analysis. We separated proteins by SDS-PAGE and transferred them to PVDF membranes. […] To average our immunoblot experiments and to present semi-quantitative results, we quantified immunoblot signals using ImageJ. […]

Experiment [7] concerns neonatal rat cardiomyocytes (NRCM). Put plainly: Contractile activity of neonatal rat cardiomyocytes. The format is cell-based. The settings on record: in the presence of isoprenaline (50 nM), 33° C., beats per minute. Here is the method: NRCM were cultured for 24 h and transduced as indicated with a control virus (LacZ) or a virus encoding RKIP-wt and/or treated with rituximab as indicated. The spontaneous contractions were measured at 33° C. for one minute and normalized for each experiment to LacZ under unstimulated conditions. NRCM were then stimulated with isoproterenol (50 nM) and after 2 min contractions were counted again. SEM; *, p<0.0001, n=5
Neonatal rat cardiomyocytes were isolated as described (Lorenz et al. Nature 2003, 426:574-579; Vidal et al., Cardiovasc. Res. 2012, 96:255-264). Cardiomyocytes were transduced by adenoviruses or treated with indicated antibodies. To monitor the contractile activity of cardiomyocytes, live cells were examined on a Zeiss Axiovert 135 microscope.

The mark [8] stands for this setting: 4 weeks isoproterenol 30 mg/kg/d via osmotic minipumps.
Setting [9] is: 4 weeks isoproterenol 30 mg/kg/d, Sirius Red-stained left ventricular sections.

In the case of `COC(=O)CCc1ccc(OCC(O)CNC(C)C)cc1` (stereo not drawn) [Esmolol, esmolol], in experiment [1] (esmolol 12 μg/min for 1 min, RKIP-tg mice), the “rates of contraction and relaxation (dP/dtmax, dP/dtmin)” value is “largely attenuated increased rates of contraction and relaxation”. Besides, the heart rates entry in experiment [1] (esmolol 12 μg/min for 1 min into V. jugularis, Wt and RKIP-tg mice) is on record as “effectively reduced heart rates”.
In the case of `Cc1ccc(OCC(O)C(C)NC(C)C)c2c1CCC2` (stereo not drawn) [ICI 118,551], the “RyR2(S2808/S2814) phosphorylation” value in experiment [2] (isoproterenol plus ICI 118,551 (0.14 μg/min for 2 min i.v.) vs. isoproterenol alone) was “much stronger phosphorylation of RyR2”. Also, in experiment [2] (isoproterenol plus ICI 118,551 vs. isoproterenol alone), the “PLN and TnI phosphorylation” value was “hardly affected PLN and TnI phosphorylation”.
With `CC(C)NCC(O)c1ccc(O)c(O)c1` (stereo not drawn) [Iso, isoproterenol], in experiment [3] (setting [8]), the EF is given as 73.0 ± 2.52^$ %; the FS was 41.6 ± 2.00^$ % of LVID; the Heart rate was 654 ± 25* bpm; the “IVS, end-diastolic” value is 0.74 ± 0.039* mm. In experiment [3] (setting [8]), the “LVID, end-diastolic” value is 3.69 ± 0.172 mm and the “LVPW, end-diastolic” value is 0.76 ± 0.036* mm. For the same compound, in experiment [3] (setting [9]), the Interstitial fibrosis is on record as 2.05 ± 0.336* arbitrary units. In addition, in experiment [4] (setting [8]), the EF was 87.1 ± 1.64*^# %; the FS is 55.9 ± 1.98*^# % of LVID; the Heart rate was 668 ± 21* bpm; the “IVS, end-diastolic” value is 0.81 ± 0.026* mm. In addition, in experiment [4] (setting [8]), the “LVID, end-diastolic” value came to 3.08 ± 0.086 mm and the “LVPW, end-diastolic” value is reported as 0.84 ± 0.022* mm. In addition, the Interstitial fibrosis in experiment [4] (setting [9]) is 1.05 ± 0.263*^# arbitrary units.
Take “bevacizumab: anti-VEGF antibody, recombinant humanized monoclonal IgG1”: the RKIP expression result in experiment [5] is recorded as “most up-regulation of RKIP expression”. Also, the “"active" RKIP (Ser153-phosphorylation)” value in experiment [6] is “increased”.
On to panitumumab: anti-EGFR antibody, for which, in experiment [5], the RKIP expression entry is on record as “up-regulation of RKIP expression”.
Regarding rituximab: anti-CD20 antibody, the RKIP expression result in experiment [5] is given as “even more prominent up-regulation of RKIP”. Besides, the “"active" RKIP (Ser153-phosphorylation)” value in experiment [6] is on record as “increased”. Further, the NRCM contractility entry in experiment [7] is recorded as “increased NRCM contractility”.
